According to patent US7566787B2, “Small molecule cyclin D1 ablative agents” (The Ohio State University, priority 2004, dated 2009):
Peptide text beside a SMILES is read from it. * marks the point of attachment. Cbz = O=C(OCc1ccccc1)*

Legend:
[1] = system: MCF-7 cells; assay: MTT cell viability assay; assay type: cell-based; settings: Homo sapiens, MCF7, cell viability data, read-out: IC50 for MTT
Protocol: Cell viability analysis. The effect of individual test agents on cell viability was assessed by using the MTT [3-(4,5-dimethylthiazol-2-yl)-2,5-diphenyl-2H-tetrazolium bromide] assay in six replicates. Cells were seeded and incubated in 96-well, flat-bottomed plates in DMEM-F12 media with 10% FBS for 24 h, and were exposed to various concentrations of test agents dissolved in DMSO (final DMSO concentration, 0.1%) in 5% FBS-supplemented DMEM-F12 medium. Controls received DMSO vehicle at a concentration equal to that of drug-treated cells. The medium was removed, replaced by 200 μl of 0.5 mg/ml of MTT in 10% FBS-containing RPMI-1640 medium, and cells were incubated in the CO2 incubator at 37° C. for 2 h. Supernatants were removed from the wells, and the reduced MTT dye was solubilized in 200 μl/well DMSO. Absorbance at 570 nm was determined on a plate reader.

[2] = system: cyclin D1; assay: Western blot analysis of cyclin D1 expression in MCF-7 cells; assay type: cell-based, human; settings: for IC50: western blot data, read-out: IC50 for WB; for effect of co-treatment on TG- and Δ2-TG-induced cyclin D1 ablation: with 40 μM TG or 30 μM Δ2-TG; for effect of co-treatment on TG- and Δ2-TG-induced cyclin D1 ablation / minimum concentration required for the complete ablation of cyclin D1: 24 h; for minimum concentration required for the complete ablation of cyclin D1: 5% FBS
Protocol: Western Blot Analysis. MCF-7 or MDA-MB-231 cells were seeded in 10% FBS-containing DMEM-F-12 for 24 h and treated with various agents as indicated. After individual treatments for 24 h, both the incubation medium and adherent cells in T-25 or T-75 flasks were scraped and collected by centrifugation at 2,000×g for 10 min. The pellets were recovered, placed on ice, and triturated with 20 to 50 μl of a chilled lysis buffer (M-PER® Mammalian Protein Extraction Reagent, Pierce, Rockford, Ill.) to which was added 1% protease inhibitor cocktail (set III, EMD Biosciences, Inc. San Diego, Calif.). After a 30 min-incubation on ice, the mixture was centrifuge at 16,100×g for 3 min. Two μl of the suspension was taken for protein analysis using the Bradford assay kit (Bio-Rad, Hercules, Calif.). To the remaining solution was added the same volume of 2× SDS-PAGE sample loading buffer (100 mM Tris-HCl, pH 6.8, 4% SDS, 5% β-mercaptoethanol 20% glycerol, and 0.1% bromophenol blue). The mixture was boiled for 10 min. Equal amounts of proteins were loaded onto 10% SDS-PAGE gels. After electrophoresis, protein bands were transferred to nitrocellulose membranes in a semi-dry transfer cell. The transblotted membrane was blocking with TBST [Tris-buffered saline (TBS) containing 0.1% Tween 20] containing 5% nonfat milk for 90 min, and the membrane was incubated with the appropriate primary antibody in TBST-5% nonfat milk at 4° C. overnight. After washing three times with TBST for a total of 45 min, the transblotted membrane was incubated with goat anti-rabbit or anti-mouse IgG-horseradish peroxidase conjugates (diluted 1:1000) for 1 h at room temperature and washed four times with TBST for a total of 1 h. The immunoblots were visualized by enhanced chemiluminescence.

CC(C)=CCOc1c(C)c(C)c2c(c1C)CCC(C)(COc1ccc(/C=C3\SC(=O)NC3=O)cc1)O2 (stereo not drawn) [TG-14]
IC50 [1]: 14.5 µM
IC50 [2]: 7 µM

CCOC(=O)C(=Cc1ccc(OCC2(C)CCc3c(C)c(OCC=C(C)C)c(C)c(C)c3O2)c(Br)c1)C(=O)OCC (stereo not drawn) [TG-41]
IC50 [1]: > 50 µM
IC50 [2]: > 7.5 µM

C=CCOc1c(C)c(C)c2c(c1C)CCC(C)(COc1ccc(/C=C3\SC(=O)NC3=O)c3ccccc13)O2 (stereo not drawn) [TG-53]
IC50 [1]: 14.5 µM

O=C1NC(=O)/C(=C/c2ccc(OCC3CCc4ccccc4C3)cc2)S1 (stereo not drawn) [TG-15]
IC50 [1]: 37 µM

CC(C)=CCOc1c(C)c(C)c2c(c1C)CCC(C)(COc1ccc(/C=C3\SC(=O)NC3=O)cc1[N+](=O)[O-])O2 (stereo not drawn) [TG-35]
IC50 [1]: 38 µM

CC(=O)N[C@@H](CSC(=O)[C@]1([C@@H](O)C(C)C)NC(=O)[C@H](C)[C@@H]1O)C(=O)O [lactacystin, reference compound]
effect of co-treatment on TG- and Δ2-TG-induced cyclin D1 ablation [2]: effective in rescuing

C=CCOc1c(C)c(C)c2c(c1C)CCC(C)(COc1c(Br)cc(/C=C3\SC(=O)NC3=O)cc1OC)O2 (stereo not drawn) [TG-54]
IC50 [1]: 17.5 µM

C=CCOc1c(C)c(C)c2c(c1C)CCC(C)(COc1ccc(/C=C3\SC(=O)N(CC(=O)OC)C3=O)cc1)O2 (stereo not drawn) [TG-9]
IC50 [1]: > 50 µM
IC50 [2]: > 7.5 µM

CCOC(=O)C(C)(C)C(O)c1ccc(OCC2(C)CCc3c(C)c(OCC=C(C)C)c(C)c(C)c3O2)c(Br)c1 (stereo not drawn) [TG-38]
IC50 [1]: > 50 µM

CC(C)=CCOc1c(C)c(C)c2c(c1C)CCC(C)(COc1ccc(/C=C/C(=O)O)cc1Br)O2 (stereo not drawn) [TG-37]
IC50 [1]: 34 µM
IC50 [2]: > 7.5 µM

C=CCOc1c(C)c(C)c2c(c1C)CCC(C)(COc1cccc(/C=C3\SC(=O)NC3=O)c1)O2 (stereo not drawn) [TG-51]
IC50 [1]: 40 µM

Cc1c(C)c2c(c(C)c1OC/C=C/c1ccccc1)CCC(C)(COc1ccc(/C=C3\SC(=O)NC3=O)cc1Br)O2 (stereo not drawn) [TG-11]
IC50 [1]: 28.5 µM
IC50 [2]: > 7.5 µM

Cc1c(C)c2c(c(C)c1OC(=O)CCC(=O)O)CCC(C)(COc1ccc(/C=C3\SC(=O)NC3=O)cc1)O2 (stereo not drawn) [TG-13]
IC50 [1]: > 50 µM
IC50 [2]: > 7.5 µM

C=CCOc1c(C)c(C)c2c(c1C)CCC(C)(COc1ccc(/C=C3\SC(=O)NC3=O)cc1Br)O2 (stereo not drawn) [TG-27]
IC50 [1]: 28 µM
IC50 [2]: > 7.5 µM

CC1(COc2ccc(CC3SC(=O)NC3=O)cc2)CCCCC1 (stereo not drawn) [CG, ciglitazone, reference compound]
minimum concentration required for the complete ablation of cyclin D1 [2]: 50 µM

CC(C)=CCOc1c(C)c(C)c2c(c1C)CCC(C)(COc1ccc(/C=C3\SC(=O)NC3=O)cc1Br)O2 (stereo not drawn) [TG-88]
IC50 [1]: 14.5 µM
IC50 [2]: > 7.5 µM

C=CCOc1c(C)c(C)c2c(c1C)CCC(C)(COc1ccc(/C=C3\SC(=S)NC3=O)cc1)O2 (stereo not drawn) [TG-3]
IC50 [1]: 11 µM
IC50 [2]: 3.5 µM

CC(C)=CCOc1c(C)c(C)c2c(c1C)CCC(C)(COc1ccc(C=C(C(=O)O)C(=O)O)cc1Br)O2 (stereo not drawn) [TG-42]
IC50 [1]: > 50 µM
IC50 [2]: > 7.5 µM

CC(C)=CCOc1c(C)c(C)c2c(c1C)CCC(C)(COc1ccc(C(O)C(C)(C)C(=O)O)cc1Br)O2 (stereo not drawn) [TG-39]
IC50 [1]: 46 µM
IC50 [2]: > 7.5 µM

CC(C)C[C@@H](C=O)NC(=O)[C@H](CC(C)C)NC(=O)[C@H](CC(C)C)NC(=O)OCc1ccccc1 [MG132, reference compound] (Cbz-Leu-Leu-Leu-aldehyde)
effect of co-treatment on Δ2-TG-6 cyclin D1 ablation ([2]; FIG. 8C): could be blocked
effect of co-treatment on TG- and Δ2-TG-induced cyclin D1 ablation [2]: effective in rescuing

CC[C@H](C)[C@H](NC(=O)[C@H]([C@@H](C)CC)N(C)C(C)=O)C(=O)N[C@H](C(=O)N[C@@H](CC(C)C)C(=O)[C@@]1(C)CO1)[C@@H](C)O [epoxomicin, reference compound]
effect of co-treatment on TG- and Δ2-TG-induced cyclin D1 ablation [2]: effective in rescuing

C=CCOc1c(C)c(C)c2c(c1C)CCC(C)(COc1ccc(/C=C3\SC(=O)NC3=O)cc1C)O2 (stereo not drawn) [TG-29]
IC50 [1]: 23.5 µM

CC(C)=CCOc1c(C)c(C)c2c(c1C)CCC(C)(COc1ccc(/C=C3\SC(=O)NC3=O)cc1C)O2 (stereo not drawn) [TG-17]
IC50 [1]: 14.5 µM

CC(C)=CCOc1c(C)c(C)c2c(c1C)CCC(C)(COc1ccc(/C=C3\SC(=O)NC3=O)cc1-c1ccc(F)cc1)O2 (stereo not drawn) [TG-32]
IC50 [1]: 19.5 µM
IC50 [2]: > 7.5 µM

O=C(Nc1ccccc1)c1cc([N+](=O)[O-])ccc1Cl [GW9962, reference compound]
effect of co-treatment on TG-mediated cyclin D1 down-regulation ([2]; concentrations three orders of magnitude higher than the IC50 in PPARγ binding): did not prevent
effect on cyclin D1 expression ([2]; high doses / comparable concentrations): no appreciable effect

CCc1ccc(-c2cc(/C=C3\SC(=O)NC3=O)ccc2OCC2(C)CCc3c(C)c(OCC=C(C)C)c(C)c(C)c3O2)cc1 (stereo not drawn) [TG-33]
IC50 [1]: > 50 µM
IC50 [2]: > 7.5 µM

CC(C)=CCOc1c(C)c(C)c2c(c1C)CCC(C)(COc1ccc(/C=C3\SC(=O)NC3=O)cc1-c1ccc(C(F)(F)F)cc1)O2 (stereo not drawn) [TG-31]
IC50 [1]: > 50 µM
IC50 [2]: > 7.5 µM

C=CCOc1c(C)c(C)c2c(c1C)CCC(C)(COc1ccc(/C=C3\SC(=O)NC3=O)cc1OC)O2 (stereo not drawn) [TG-28]
IC50 [1]: 14.5 µM

CC(C)=CCOc1c(C)c(C)c2c(c1C)CCC(C)(COc1ccc(C=C(C#N)C#N)cc1Br)O2 (stereo not drawn) [TG-36]
IC50 [1]: > 50 µM
IC50 [2]: > 7.5 µM

Cc1c(C)c2c(c(C)c1OC/C=C/c1ccccc1)CCC(C)(COc1ccc(/C=C3\SC(=O)NC3=O)cc1)O2 (stereo not drawn) [TG-10]
IC50 [1]: 19 µM
IC50 [2]: > 7.5 µM

Cc1c(C)c2c(c(C)c1OCc1ccccc1)CCC(C)(COc1ccc(/C=C3\SC(=O)NC3=O)cc1)O2 (stereo not drawn) [TG-12]
IC50 [1]: 16.7 µM

CC(C)=CCOc1c(C)c(C)c2c(c1C)CCC(C)(COc1ccc(/C=C3\SC(=O)NC3=O)cc1F)O2 (stereo not drawn) [TG-30]
IC50 [1]: 12.5 µM

COc1cc(/C=C2\SC(=O)NC2=O)ccc1OCC1(C)CCc2c(C)c(OCC=C(C)C)c(C)c(C)c2O1 (stereo not drawn) [TG-16]
IC50 [1]: 15 µM

CC(C)=CCOc1c(C)c(C)c2c(c1C)CCC(C)(COc1c(Br)cc(/C=C3\SC(=O)NC3=O)cc1Br)O2 (stereo not drawn) [TG-34]
IC50 [1]: 15.5 µM

C=CCOc1c(C)c(C)c2c(c1C)CCC(C)(COc1c(C)cc(/C=C3\SC(=O)NC3=O)cc1C)O2 (stereo not drawn) [TG-52]
IC50 [1]: 10.5 µM

Cn1cc(C2=C(c3ccc(Cl)cc3Cl)C(=O)NC2=O)c2ccccc21 [SB216763, reference compound]
effect of co-treatment on TG- and Δ2-TG-induced cyclin D1 ablation [2]: could not rescue

Cc1c(C)c2c(c(C)c1O)CCC(C)(COc1ccc(CC3SC(=O)NC3=O)cc1)O2 (stereo not drawn) [TG, troglitazone, reference compound]
time of complete ablation of cyclin D1 ([2]; 40 μM TG, 30 μM Δ2-TG): 24 h
minimum concentration required for the complete ablation of cyclin D1 [2]: 40 µM

CC(C)=CCOc1c(C)c(C)c2c(c1C)CCC(C)(COc1ccc(/C=C3\SC(=S)NC3=O)c3ccccc13)O2 (stereo not drawn) [TG-46]
IC50 [1]: 37.3 µM

COc1cc(/C=C2\SC(=O)NC2=O)cc(Br)c1OCC1(C)CCc2c(C)c(OCC=C(C)C)c(C)c(C)c2O1 (stereo not drawn) [TG-44]
IC50 [1]: 14.5 µM
IC50 [2]: > 7.5 µM

CCOc1cc(/C=C2\SC(=O)NC2=O)ccc1OCC1(C)CCc2c(C)c(OCC=C(C)C)c(C)c(C)c2O1 (stereo not drawn) [TG-45]
IC50 [1]: 13 µM

C=CCOc1c(C)c(C)c2c(c1C)CCC(C)(COc1ccc(/C=C3\SC(=O)NC3=O)cc1OCC)O2 (stereo not drawn) [TG-55]
IC50 [1]: 17 µM
IC50 [2]: > 7.5 µM

CC(C)=CCOc1c(C)c(C)c2c(c1C)CCC(C)(COc1ccc(/C=C3\SC(=O)NC3=O)c3ccccc13)O2 (stereo not drawn) [TG-43]
IC50 [1]: 14.5 µM
